Reference: patent US12496275B2, “Drug delivery methods and compositions” (Mayo Foundation for Medical Education and Research, priority 2019, dated 2025)
One block for each compound: values may come before it.

How the values were obtained:
[1] = Analysis of encapsulation efficiency and drug loading efficiency of liposomes; format: physicochemical
Method: Analysis of encapsulation efficiency and drug loading efficiency: Liposome-encapsulation efficiency was measured by determining the amount of entrapped drugs. Briefly, the drug-loaded liposome sample was centrifuged in an amicon ultra centrifugal filter with a cut off size of 3 kD in order to separate the unentrapped drug. Total (Tdrug) and unentrapped drug (UEdrug) amounts were determined by measuring the absorbance at λx of respective drugs and comparing with corresponding standard curves. The encapsulated drug (Edrug) amount was calculated by subtracting the amount of unentrapped drugs (UEdrug) from total drug (Tdrug) amount. The drug-encapsulation efficiency (EE %) was expressed as the percentage of the encapsulated amount (Edrug) to the total amount (Tdrug). Drug loading efficiency was expressed as the percentage of encapsulated drug (Edrug) to the total lipid amount (Tlipid).

[2] = stated, no test described; cited from earlier work
AsPC-1 tumors = assay: Validation study, GIPC-1 knockdown plus gemcitabine, 5 mice per group; format: in vivo; conditions: AsPC-1, 5 mice per group, gemcitabine 10 mg/kg
Method: (§1) This strategy is currently being used in ‘Avatar’ models for the development of personalized therapy for various diseases. These ‘Avatar’ models are developed by implanting patient tumor samples in mice for subsequent drug efficacy studies. […] We used the same strategy in our SMT. All procedures were performed according to the approved guidelines. For the pancreatic cancer orthotopic model, 6-8-week-old female SCID mice were obtained from in-house breeding. Approximately, 1×10^6 luciferase-labeled Tet-inducible GIPC-1 shRNA vector-transfected AsPC-1 or PANC-1 cells, resuspended in 100 μL of PBS were injected into the pancreas of each mouse. After three days of cell inoculation, GIPC-1 knockdown was induced by adding doxycycline (0.5 mg/mL) in drinking water for the remainder of the study. […] After completion of the experiment, all tumor-bearing mice were euthanized with CO2; tumors were harvested, and tumor volumes and weights were measured.

[3] = system: PANC-1 orthotopic xenografts; assay: Single mouse trial, GIPC-1 knockdown plus gemcitabine; format: in vivo, mice; conditions: PANC-1, single mouse, gemcitabine 10 mg/kg
From the text: as §1, with “In vivo tumor growth inhibition experiment: A single mouse trial (SMT) was used to assess the in vivo tumor inhibition study in combination with GIPC-1 knockdown plus gemcitabine treatment. This” for “This”

[4] = system: AsPC-1 orthotopic xenografts; assay: as above; format: in vivo, mice; conditions: AsPC-1, single mouse, gemcitabine 10 mg/kg
From the text: as §1, with “In vivo tumor growth inhibition experiment: A single mouse trial (SMT) was used to assess the in vivo tumor inhibition study in combination with GIPC-1 knockdown plus gemcitabine treatment. This” for “This”

AsPC-1 cells = assay: In vitro gemcitabine sensitivity after Tet-inducible GIPC shRNA knockdown; format: cell-based, human; conditions: AsPC-1, 0.5 μM to 50 μM, 72 h
Method: (§2) Antibodies. Antibody for β-actin and horseradish peroxidase-conjugated secondary antibodies were purchased from Santa Cruz Biotechnology. Anti-GIPC antibody was purchased from Thermo Fisher, USA. shRNA Transfection. The plasmids for Tet-on-inducible GIPC1 shRNA were purchased from Dharmacon, US. Lentivirus stocks for GIPC1 shRNA were prepared and infected into the target cells following standard procedures. After infection, 2 μg/mL of puromycin was added to the medium for antibiotic selection. For the Tet-On-inducible GIPC shRNA, 0.4 μg/mL of doxycycline was used to induce shRNA expression in the stably infected cells.
(§3) In vitro cytotoxicity assay: Approximately, 5×10^3 cells were seeded in 384-well plates. After 18-24 h, cells were treated with increasing concentrations of gemcitabine and incubated for further 72 h. At the end of the incubation, cell viability was measured using CellTiter-Glo® 2.0 Assay (Promega) as per the manufacturer's protocol. Briefly, 24 μL of reagent was added to each well. The plate was incubated at RT for 10 minutes and luminescence signals were measured using Spectramax i3x. Percentage viability is calculated as follows: Viability (%)=100×(ATreated−ABlank)/(AUntreated−ABlank).

PANC-1 cells = assay: as above; format: cell-based, human; conditions: PANC-1, 0.5 μM to 50 μM, 72 h
Method: as §2, §3

Compound: CCc1c2c(nc3ccc(OC(=O)N4CCC(N5CCCCC5)CC4)cc13)-c1cc3c(c(=O)n1C2)COC(=O)[C@]3(O)CC [IRT, irinotecan]
water solubility [2]: poorly water-soluble

Compound: Nc1ccn([C@@H]2O[C@H](CO)[C@@H](O)C2(F)F)c(=O)n1 [gemcitabine]
response of GIPC-depleted tumors to gemcitabine (tumor volume, weight) (AsPC-1 tumors): increasing gemcitabine efficacy
response of GIPC-depleted tumors to gemcitabine (tumor volume, weight) (AsPC-1 tumors; listed as Gemcitabine): more or less similar results
response of GIPC-depleted tumors to gemcitabine (tumor volume, weight) [3]: increasing gemcitabine efficacy
response of GIPC-depleted tumors to gemcitabine (tumor volume, weight) ([3]; listed as Gemcitabine): significantly higher response
response of GIPC-depleted tumors to gemcitabine (tumor volume, weight) [4]: increasing gemcitabine efficacy
response of GIPC-depleted tumors to gemcitabine (tumor volume, weight) ([4]; listed as Gemcitabine): significantly higher response
growth inhibition by gemcitabine in GIPC-depleted vs control cells (AsPC-1 cells): steeper growth inhibition curve
growth inhibition by gemcitabine in GIPC-depleted vs control cells (AsPC-1 cells; listed as Gemcitabine): sensitizes
growth inhibition by gemcitabine in GIPC-depleted vs control cells (PANC-1 cells): steeper growth inhibition curve
growth inhibition by gemcitabine in GIPC-depleted vs control cells (PANC-1 cells; listed as Gemcitabine): sensitizes

Second part, led by results:

% of Total drug loading w.r.t Total lipid ([1]; EG00229): 2.2%
Encapsulation efficiencies (%) ([1]; EG00229): 30%
Compound: NC(N)=NCCC[C@H](NC(=O)c1sccc1NS(=O)(=O)c1cccc2nsnc12)C(=O)O [EG00229]

% of Total drug loading w.r.t Total lipid ([1]; everolimus): 7.29%
Encapsulation efficiencies (%) ([1]; everolimus): ~100%
Compound: CO[C@H]1C[C@@H]2CC[C@@H](C)[C@@](O)(O2)C(=O)C(=O)N2CCCC[C@H]2C(=O)O[C@H]([C@H](C)C[C@@H]2CC[C@@H](OCCO)[C@H](OC)C2)CC(=O)[C@H](C)/C=C(\C)[C@@H](O)[C@@H](OC)C(=O)[C@H](C)C[C@H](C)/C=C/C=C/C=C/1C [everolimus]
water solubility [2]: water insoluble

% of Total drug loading w.r.t Total lipid ([1]; vinorelbine): 3.5%
Encapsulation efficiencies (%) ([1]; vinorelbine): 23.7%
Compound: CCC1=C[C@@H]2CN(C1)Cc1c([nH]c3ccccc13)[C@@](C(=O)OC)(c1cc3c(cc1OC)N(C)[C@H]1[C@@](O)(C(=O)OC)[C@H](OC(C)=O)[C@]4(CC)C=CCN5CC[C@]31[C@@H]54)C2 [vinorelbine]
water solubility [2]: highly water soluble
